Assay type in all cases: in vivo
For one data set, the system named is Monochoria vaginalis. Kind of data set: Test Example 1: herbicidal activity, application before weed generation in submerged conditions (symbol C). To be noted: application herbicide amount 320 g/ha. The method, boiled down: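 Flooded alluvial soil (4 cm water) was mixed-sown with the three weed species, and 2.5-leaf rice seedlings were transplanted. On sowing day, a water-diluted emulsion at a predetermined rate was applied to the water surface. After 3 weeks in a 25–30 °C greenhouse, effect was scored 0–5.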

In a further data set the test system is Scirpus juncoides. The data set is described as follows: Test Example 2: herbicidal activity, application during weed generation in submerged conditions (symbol B). Particulars: Table 23; application herbicide amount 320 g/ha; grade 0-5 by criteria of Test Example 1. The method in brief:
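Flooded-soil post-emergence test: emulsion of compound, water-diluted to target rate, applied to paddy water surface at 1–2 leaf stage of mixed-sown weeds (alluvial soil, 4 cm water, 25–30° C. greenhouse); visual rating 3 weeks after application.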

Data set [1] has as its system directly sowed rice plant. The data set is described as follows: Test Example 3: effect on crop by foliage application, Wagner pot (symbol b). Particulars: application herbicide amount 320 g/ha. The method, boiled down: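 Plants are raised from seed in flooded paddy conditions: water stands 0.1–0.5 cm over alluvial soil, and the pot is kept in a greenhouse at 25–30 °C. Species sown are barnyardgrass (E. crus-galli var. crus-galli), Leptochloa chinensis, Cyperus difformis and rice.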

The next data set deals with Stellaria media. Kind of data set: Test Example 4: herbicidal effect by soil treatment (symbol P). Particulars: application herbicide amount 320 g/ha. The method, boiled down:
(§1)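 Seeds were sown in sterilized diluvial soil, covered with about 1.5 cm of soil, and the soil surface was sprayed with a water-diluted emulsion of the compound at a predetermined rate. Plants grew in a greenhouse at 25° C. to 30° C.; effects were scored visually 3 weeks after application.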

The next data set has as its system beet. Kind of data set: Test Example 4: effect on crop by soil treatment (symbol f). Particulars: application herbicide amount 320 g/ha. The method, boiled down:
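Grown at 25° C. to 30° C. in a greenhouse, the crops came from seed sown spot-wise in sterilized diluvial soil under roughly 1.5 cm of covering soil.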

The subject of data set [2] is Echinochloa crus-galli var. crus-galli. The data set is described as follows: Test Example 5: herbicidal effect by foliage application, plastic box (symbol H). To be noted: 320 g/ha, 3 weeks after application. The method in brief: (§2)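 Effect is rated 3 weeks after a foliar spray of water-diluted emulsion concentrate at a predetermined herbicide amount. Plants had grown 14 days in a 25° C. to 30° C. greenhouse from seed in sterilized diluvial soil.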

In the next data set the test system is Lolium multiflorum Lam. Kind of data set: Test Example 5: herbicidal effect by foliage application, plastic box (symbol K). Particulars: 320 g/ha, 3 weeks after application. The method in brief:
as §2

The subject of another data set is soybean. The data set is described as follows: Test Example 5: effect on crop by foliage application, plastic box (symbol d). To be noted: 320 g/ha, 3 weeks after application. The method in brief: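 Diluvial soil, sterilized and boxed (21 × 13 × 7 cm), received spot-sown seed covered by about 1.5 cm soil; plants were then greenhouse-grown at 25–30° C.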
The next data set relates to Abutilon theophrasti. The data set is described as follows: Test Example 4: herbicidal effect by soil treatment (symbol M). Particulars: application herbicide amount 320 g/ha. The method, boiled down:
as §1

Take `CON=C(C)C(C)C1CC(O)=C(c2c(C)cc(Br)cc2OC)C1=O` (stereo not drawn) [6-113]: the “Herbicidal effect grade, C: Monochoria vaginalis” value (“Herbicidal effect grade, C” below) in the data set with Monochoria vaginalis is on record as 0 (Herbicidal ratio of 5% or lower (almost no effect)). In addition, the “Herbicidal effect grade, B: Scirpus juncoides” value (shortened to “Herbicidal effect grade, B”) in the data set with Scirpus juncoides is given as 0 (Herbicidal ratio of 5% or lower (almost no effect)). Also, the “effect on crop b (directly sowed rice plant), grade 0-5” value (from here on “effect on crop b”) in [1] was 5 (Herbicidal ratio of 90% or more (almost completely withered)). In addition, the “Herbicidal effect grade, P: Stellaria media” value (shortened to “Herbicidal effect grade, P”) in the data set on Stellaria media was 0 (Herbicidal ratio of 5% or lower (almost no effect)). Besides, the “Effect on crop grade, f: beet” value in the data set with beet is recorded as 0 (Herbicidal ratio of 5% or lower (almost no effect)). The “H: Echinochloa crus-galli var. crus-galli, herbicidal effect (criteria of Test Example 1)” value in data set [2] is listed as 5 (Herbicidal ratio of 90% or more (almost completely withered)). The “K: Lolium multiflorum Lam., herbicidal effect (criteria of Test Example 1)” value with Lolium multiflorum Lam. was 5 (Herbicidal ratio of 90% or more (almost completely withered)). Besides, the “d: soybean, effect on crop (criteria of Test Example 1)” value in the data set on soybean is recorded as 0 (Herbicidal ratio of 5% or lower (almost no effect)).

In the case of `COc1cc(Br)cc(F)c1C1=C(O)CC(CC(C)=O)C1=O` (stereo not drawn) [7-029], the “Herbicidal effect grade, C” value with Monochoria vaginalis is 0 (Herbicidal ratio of 5% or lower (almost no effect)). For the same compound, in data set [1] (Table 24), the “b (directly sowed rice plant) effect on crop grade” value is given as 0 (Herbicidal ratio of 5% or lower (almost no effect)). In the data set on Abutilon theophrasti, the “Herbicidal effect grade, M: Abutilon theophrasti” value (from here on “Herbicidal effect grade, M”) is 0 (Herbicidal ratio of 5% or lower (almost no effect)). In the data set on Stellaria media, the “Herbicidal effect grade, P” value is given as 0 (Herbicidal ratio of 5% or lower (almost no effect)). In the data set on beet, the “Effect on crop grade, f: beet” value is on record as 0 (Herbicidal ratio of 5% or lower (almost no effect)). Further, in the data set on Lolium multiflorum Lam., the “K: Lolium multiflorum Lam., herbicidal effect (criteria of Test Example 1)” value was 5 (Herbicidal ratio of 90% or more (almost completely withered)).

Take `CC(=O)CC1CC(O)=C(c2c(C)cc(Oc3ccc(C(F)(F)F)cn3)cc2C)C1=O` (stereo not drawn) [7-019]: in the data set on Monochoria vaginalis, the “Herbicidal effect grade, C” value is reported as 0 (Herbicidal ratio of 5% or lower (almost no effect)). Further, in [1], the “effect on crop b” value was 3 (Herbicidal ratio of 40% or higher and lower than 70%). Also, in the data set with Abutilon theophrasti, the “Herbicidal effect grade, M” value is recorded as 0 (Herbicidal ratio of 5% or lower (almost no effect)). Moreover, the “Herbicidal effect grade, P” value in the data set with Stellaria media is listed as 0 (Herbicidal ratio of 5% or lower (almost no effect)). Further, in the data set on beet, the “Effect on crop grade, f: beet” value is given as 0 (Herbicidal ratio of 5% or lower (almost no effect)). The “H: Echinochloa crus-galli var. crus-galli, herbicidal effect (criteria of Test Example 1)” value in data set [2] was 4 (Herbicidal ratio of 70% or higher and lower than 90%). The “K: Lolium multiflorum Lam., herbicidal effect (criteria of Test Example 1)” value in the data set on Lolium multiflorum Lam. is 3 (Herbicidal ratio of 40% or higher and lower than 70%). For the same compound, the “d: soybean, effect on crop (criteria of Test Example 1)” value in the data set with soybean is recorded as 0 (Herbicidal ratio of 5% or lower (almost no effect)).

Regarding `CON=C(C)CC1CC(O)=C(c2c(F)cc(Br)cc2OC)C1=O` (stereo not drawn) [6-096], in the data set with Monochoria vaginalis, the “Herbicidal effect grade, C” value is recorded as 0 (Herbicidal ratio of 5% or lower (almost no effect)). Moreover, the “Herbicidal effect grade, B” value with Scirpus juncoides is recorded as 0 (Herbicidal ratio of 5% or lower (almost no effect)). The “effect on crop b” value in [1] is 5 (Herbicidal ratio of 90% or more (almost completely withered)). The “Herbicidal effect grade, M” value in the data set with Abutilon theophrasti is 0 (Herbicidal ratio of 5% or lower (almost no effect)). Besides, in the data set with Stellaria media, the “Herbicidal effect grade, P” value is given as 0 (Herbicidal ratio of 5% or lower (almost no effect)). The “Effect on crop grade, f: beet” value in the data set on beet is 0 (Herbicidal ratio of 5% or lower (almost no effect)). Besides, the “K: Lolium multiflorum Lam., herbicidal effect (criteria of Test Example 1)” value with Lolium multiflorum Lam. was 5 (Herbicidal ratio of 90% or more (almost completely withered)).

On to `CON=C(C)CC1CC(OC(=O)N2CCOCC2)=C(c2c(C)cc(-c3ccc(Cl)cc3F)cc2C)C1=O` (stereo not drawn) [6-089], for which the “Herbicidal effect grade, C” value with Monochoria vaginalis is 3 (Herbicidal ratio of 40% or higher and lower than 70%). The “Herbicidal effect grade, B” value in the data set with Scirpus juncoides is 2 (Herbicidal ratio of 20% or higher and lower than 40%). For the same compound, the “effect on crop b” value in data set [1] is reported as 5 (Herbicidal ratio of 90% or more (almost completely withered)). Also, the “Herbicidal effect grade, M” value with Abutilon theophrasti was 0 (Herbicidal ratio of 5% or lower (almost no effect)). Moreover, the “Herbicidal effect grade, P” value with Stellaria media is recorded as 0 (Herbicidal ratio of 5% or lower (almost no effect)). Also, the “Effect on crop grade, f: beet” value with beet is recorded as 0 (Herbicidal ratio of 5% or lower (almost no effect)). Also, the “K: Lolium multiflorum Lam., herbicidal effect (criteria of Test Example 1)” value with Lolium multiflorum Lam. was 4 (Herbicidal ratio of 70% or higher and lower than 90%).

Regarding `C#CCON=C(C)CC1CC(O)=C(c2c(C)cc(C)cc2C)C1=O` (stereo not drawn) [1-019], in the data set with Monochoria vaginalis, the “Herbicidal effect grade, C” value is 2 (Herbicidal ratio of 20% or higher and lower than 40%). In the data set with Scirpus juncoides, the “Herbicidal effect grade, B” value is 5 (Herbicidal ratio of 90% or more (almost completely withered)). Besides, the “effect on crop b” value in data set [1] is 5 (Herbicidal ratio of 90% or more (almost completely withered)). In the data set on Abutilon theophrasti, the “M (Abutilon theophrasti) herbicidal effect grade” value is 4 (Herbicidal ratio of 70% or higher and lower than 90%). Further, in the data set with beet, the “f (beet) effect on crop grade” value is reported as 0 (Herbicidal ratio of 5% or lower (almost no effect)). Further, in [2], the “H: Echinochloa crus-galli var. crus-galli, herbicidal effect grade” value is given as 5 (Herbicidal ratio of 90% or more (almost completely withered)). In addition, the “K: Lolium multiflorum Lam., herbicidal effect grade” value in the data set on Lolium multiflorum Lam. is recorded as 5 (Herbicidal ratio of 90% or more (almost completely withered)). For the same compound, the “d: soybean, effect on crop grade” value in the data set with soybean is 3 (Herbicidal ratio of 40% or higher and lower than 70%).

As to `CON=C(C)CC1CC(OC(=O)C(C)(C)CCl)=C(c2c(C)cc(C)cc2C)C1=O` (stereo not drawn) [1-016], in the data set with Monochoria vaginalis, the “Herbicidal effect grade, C” value was 4 (Herbicidal ratio of 70% or higher and lower than 90%). Besides, the “Herbicidal effect grade, B” value in the data set on Scirpus juncoides is 4 (Herbicidal ratio of 70% or higher and lower than 90%). Besides, the “effect on crop b” value in data set [1] is listed as 5 (Herbicidal ratio of 90% or more (almost completely withered)). In the data set on Abutilon theophrasti, the “M (Abutilon theophrasti) herbicidal effect grade” value was 5 (Herbicidal ratio of 90% or more (almost completely withered)). Also, in the data set on beet, the “f (beet) effect on crop grade” value is 0 (Herbicidal ratio of 5% or lower (almost no effect)). Moreover, the “H: Echinochloa crus-galli var. crus-galli, herbicidal effect grade” value in [2] is on record as 5 (Herbicidal ratio of 90% or more (almost completely withered)). The “K: Lolium multiflorum Lam., herbicidal effect grade” value in the data set on Lolium multiflorum Lam. is on record as 5 (Herbicidal ratio of 90% or more (almost completely withered)). Also, the “d: soybean, effect on crop grade” value in the data set on soybean is 4 (Herbicidal ratio of 70% or higher and lower than 90%).

Consider `C=CCON=C(C)CC1CC(O)=C(c2c(C)cc(C)cc2C)C1=O` (stereo not drawn) [1-018], for which the “Herbicidal effect grade, C” value with Monochoria vaginalis is 2 (Herbicidal ratio of 20% or higher and lower than 40%). Moreover, the “Herbicidal effect grade, B” value in the data set on Scirpus juncoides is listed as 5 (Herbicidal ratio of 90% or more (almost completely withered)). In addition, the “effect on crop b” value in data set [1] is reported as 5 (Herbicidal ratio of 90% or more (almost completely withered)). In addition, in the data set with Abutilon theophrasti, the “M (Abutilon theophrasti) herbicidal effect grade” value is 4 (Herbicidal ratio of 70% or higher and lower than 90%). In the data set on beet, the “f (beet) effect on crop grade” value is 0 (Herbicidal ratio of 5% or lower (almost no effect)). Besides, the “H: Echinochloa crus-galli var. crus-galli, herbicidal effect grade” value in data set [2] is 5 (Herbicidal ratio of 90% or more (almost completely withered)). For the same compound, the “K: Lolium multiflorum Lam., herbicidal effect grade” value in the data set with Lolium multiflorum Lam. is listed as 5 (Herbicidal ratio of 90% or more (almost completely withered)). The “d: soybean, effect on crop grade” value in the data set on soybean was 3 (Herbicidal ratio of 40% or higher and lower than 70%).

The values above are taken from patent US11000033B2, “Ketone or oxime compound, and herbicide” (NISSAN CHEMICAL CORPORATION, priority 2014, dated 2021).
